Measured values reported in patent US20020152038A1, “Selection method for aroma substances” (priority 2000, published 2002).
Where two headings read alike, the source gives them in different places.

Key:
[1] = Headspace above the milkshake, SPME-GC, relative partition parameters; assay type: physicochemical
Protocol: (§1) The procedure is analogous in all examples.
The example reflects the taste impression which is perceived via the olfactory epithelium, when enjoying a milkshake. The milkshake is prepared as is generally customary. The mixture of 39 aroma substances is incorporated into the abovementioned milk product (1) in an amount of 0.2%. 50 g of this mixture are transferred to a 100 ml Erlenmeyer flask sealed with a septum and left to stand for 2 h at 35° C. with gentle stirring. The headspace above the mixture is extracted over 15 min using solid phase microextraction (SPME). The SPME needle is desorbed in a GC injector, and a gas chromatogram is recorded. […] The analytical results are then used mathematically as described above.

[2] = Headspace above the lemonade, SPME, relative partition parameters; assay type: physicochemical
Protocol: as §1
The example reflects the taste impression which is perceived from via the olfactory epithelium, when enjoying a lemonade drink. The mixture of 39 odorants is incorporated into the above-mentioned lemonade drink (1) in an amount of 0.05%. 50 g of the lemonade drink are transferred to a 100 ml Erlenmeyer flask sealed with a septum and left to stand for 2 h at 35° C. with gentle stirring. The headspace above the lemonade is extracted using a SPME over 15 min. […] The analytical results are then used mathematically as described above.

[3] = according to COSMO-RS correlation
[4] = according to COSMO-RS correlation; remark: listed apart in the source
[5] = headspace vs milkshake, 0.2% aroma mixture, 2 h at 35° C., SPME 15 min
[6] = headspace vs lemonade, 0.05% odorant mixture, 2 h at 35° C., SPME 15 min

| Molecule | Activity (logarithmic partition parameter above a milkshake) [1, 5] | Activity (logarithmic partition parameter above lemonade) [2, 6] | Differences (Activity minus Prediction, milkshake) [3] | Differences (Activity minus Prediction, lemonade) [4] | Activity (logarithmic partition parameter above a milkshake) [1] | Activity (logarithmic partition parameter above lemonade) [2] |
| --- | --- | --- | --- | --- | --- | --- |
| CC(=O)OCc1ccccc1 [Benzyl acetate] | 0.306 | 0.086 | 0.515 | 0.552 |  |  |
| OCc1ccccc1 [Benzyl alcohol] | −0.819 | −1.955 | −0.391 | −0.783 |  |  |
| O=C(OCc1ccccc1)c1ccccc1O [Benzyl salicylate] | −3.313 | −3.037 | −1.057 | −0.340 |  |  |
| C=C1CCC2CC1C2(C)C (stereo not drawn) [Beta-Pinene] | 1.029 | 0.485 | −0.082 | −0.189 |  |  |
| C=C1C2CCC(C2)C1(C)C (centres unmarked) [Camphene] | 0.985 | 0.465 | −0.169 | −0.226 |  |  |
| C[C@@H]1CC[C@H]2C(C)(C)[C@H]3C[C@@]12CC[C@@]3(C)O [Cedrol] | −1.077 | −0.895 | −0.025 | 0.196 |  |  |
| CC(=O)O[C@]1(C)CC[C@@]23C[C@@H]1C(C)(C)[C@@H]2CC[C@H]3C [Cedryl acetate] |  |  |  |  | −1.690 | −1.653 |
| CC(C)=CCCC(C)CCO (centres unmarked) [Citronellol] | 0.199 | 0.044 | 0.138 | 0.207 |  |  |
| O=c1ccc2ccccc2o1 [Coumarin] |  |  | 0.244 | 0.162 |  |  |
| CC(=O)OC(C)(C)Cc1ccccc1 [DMBCA, dimethylbenzylcarbinyl acetate] | 0.378 | 0.523 | 0.537 | 0.898 |  |  |
| CCOC(=O)c1ccccc1C(=O)OCC [Diethyl phthalate] | −1.607 | −1.895 | −0.553 | −1.693 |  |  |
| CC(=O)OC(C)(C)C1CC=C(C)CC1 (centres unmarked) [Terpinyl acetate] |  |  |  |  | 0.418 | 0.644 |
| Caryophyllene |  |  |  |  | 1.132 | 0.827 |

Second part, led by results:

| Activity (logarithmic partition parameter above a milkshake) [1, 5] | Activity (logarithmic partition parameter above lemonade) [2, 6] | Differences (Activity minus Prediction, milkshake) [3] | Differences (Activity minus Prediction, lemonade) [4] | Molecule | Activity (logarithmic partition parameter above a milkshake) [1] | Activity (logarithmic partition parameter above lemonade) [2] |
| --- | --- | --- | --- | --- | --- | --- |
| 0.707 | 0.994 | 0.480 | 0.587 | CC(=O)O[C@@H]1C[C@H]2CC[C@]1(C)C2(C)C (racemic) [Isobornyl acetate] |  |  |
| 0.432 | 0.334 | 0.135 | 0.513 | C=CC(C)CCCC(C)(C)O (centres unmarked) [Dihydromyrcenol] |  |  |
| −0.557 | −0.841 | 0.528 | 0.454 | C=CCc1ccc(O)c(OC)c1 [Eugenol] |  |  |
| −0.053 | −0.413 |  |  | CC(C)=CCC/C(C)=C/CO [Geraniol] |  |  |
| −1.949 | −1.911 | −0.674 | −0.710 | CCCCCC/C(C=O)=C\c1ccccc1 [Hexylcinnamaldehyde, α] |  |  |
| −1.679 | −1.879 | −1.369 | −1.868 | CC(CC=O)CCCC(C)(C)O (centres unmarked) [Hydroxycitronellal] |  |  |
| −0.001 | 0.024 | 0.158 | −0.060 | CC(=O)/C=C/C1C(C)=CCCC1(C)C (stereo not drawn) [Ionone, α, Ionone, alpha] |  |  |
| −0.154 | −0.061 | 0.047 | 0.072 | CC(=O)/C=C/C1=C(C)CCCC1(C)C [Ionone, β, Ionone, beta] |  |  |
| −0.528 | −0.462 | 0.215 | 0.201 | CC(C)CCOC(=O)c1ccccc1O [Isoamyl salicylate] |  |  |
| −0.690 | −0.656 | 0.135 | 0.074 | CC(C=O)Cc1ccc(C(C)(C)C)cc1 (centres unmarked) [Lilial] |  |  |
| 1.088 | 0.925 | −0.090 | 0.072 | C=C(C)[C@H]1CC=C(C)CC1 [Limonene D] |  |  |
| 0.225 | 0.141 | −0.231 | 0.246 | C=CC(C)(O)CCC=C(C)C (centres unmarked) [Linalool] |  |  |
| 0.188 | 0.001 | 0.225 | 0.272 | OCCc1ccccc1 [PEA, phenylethyl alcohol] |  |  |
| 0.413 | 0.151 | −0.864 | −1.038 | CC(=O)OCC=C(C)C [Prenyl acetate] |  |  |
| 0.402 | 0.312 | 0.554 | 0.641 | CC(=O)OC(C)c1ccccc1 (centres unmarked) [Styrolyl acetate] |  |  |
| 1.078 | 0.363 | 0.067 | −0.110 | CC1=CCC2CC1C2(C)C (stereo not drawn) [alpha-Pinene] |  |  |
| 1.064 | 1.032 | −0.004 | 0.411 | CC1=CCC(C(C)C)=CC1 [gamma-Terpinene] |  |  |
